Calls of active or inactive are those of the source. No cut-off for these calls is given here.
Columns and labels:
HepG2 [1] = test: Cytotoxicity against human HepG2 cells assessed as cell viability at 10 uM incubated for 24 hrs by MTT assay; type: toxicity, cell-based; conditions: hepg2, 24 h
IMR-32 = test: Cytotoxicity against human IMR-32 cells assessed as cell viability at 10 uM incubated for 24 hrs by MTT assay; type: toxicity, cell-based; conditions: imr-32, 24 h
[2] = Cytotoxicity against mouse L929 cells incubated for 96 hrs by Alamar Blue assay; type: toxicity, cell-based; conditions: read-out: LC50
Trypanosoma brucei = test: microbe, parasite or virus in culture; type: functional, organism-based; conditions: Lister 427WT, 48 h
Description: Antiparasitic activity against Trypanosoma brucei Lister 427WT bloodstream trypomastigotes incubated for 48 hrs by Resazurin assay

Leishmania mexicana = test: Antiparasitic activity against Leishmania mexicana Cas9 promastigotes incubated for 48 hrs by Resazurin assay; type: functional, organism-based; conditions: Cas9, 48 h
Trypanosoma cruzi = test: Antiparasitic activity against Trypanosoma cruzi Tulahuen intracellular forms infected in mouse L929 cells incubated for 96 hrs by spectrophotometery; type: functional, organism-based; conditions: L929, 96 h
[3] = biological target: T1, Histone deacetylase (Homo sapiens) (UniProt Q13547+O15379+Q9UBN7+Q92769+Q9UQL6+Q8WUI4+Q9BY41+Q96DB2+P56524+Q9UKV0+Q969S8); test: Inhibition of HDAC in human MET5A cells transfected with Rluc-Brd/YFP-fused histone H3 at 0.1 to 10 uM by BRET assay; type: cell-based; conditions: dose 0.1-10 µM
Leishmania amazonensis = test: Antiparasitic activity against Leishmania amazonensis MHOM/BR/77/LTB0016 amastigotes infected in BALB/c mouse incubated for 48 hrs by Alamar Blue assay; type: functional, organism-based; conditions: MHOM/BR/77/LTB0016, 48 h
[4] = biological target: T1, Histone deacetylase (Homo sapiens); test: Inhibition of HDAC in human MET5A cells transfected with Rluc-Brd/YFP-fused histone H3 by BRET assay; type: cell-based; conditions: dose 0.1-10 µM
[5] = biological target: T2, Protein deacetylase HDAC6 (Homo sapiens, UniProt Q9UBN7); test: Inhibition of HDAC6 (unknown origin) using RHKK(Ac)AMC as substrate
T2 sequence (Q9UBN7 whole entry): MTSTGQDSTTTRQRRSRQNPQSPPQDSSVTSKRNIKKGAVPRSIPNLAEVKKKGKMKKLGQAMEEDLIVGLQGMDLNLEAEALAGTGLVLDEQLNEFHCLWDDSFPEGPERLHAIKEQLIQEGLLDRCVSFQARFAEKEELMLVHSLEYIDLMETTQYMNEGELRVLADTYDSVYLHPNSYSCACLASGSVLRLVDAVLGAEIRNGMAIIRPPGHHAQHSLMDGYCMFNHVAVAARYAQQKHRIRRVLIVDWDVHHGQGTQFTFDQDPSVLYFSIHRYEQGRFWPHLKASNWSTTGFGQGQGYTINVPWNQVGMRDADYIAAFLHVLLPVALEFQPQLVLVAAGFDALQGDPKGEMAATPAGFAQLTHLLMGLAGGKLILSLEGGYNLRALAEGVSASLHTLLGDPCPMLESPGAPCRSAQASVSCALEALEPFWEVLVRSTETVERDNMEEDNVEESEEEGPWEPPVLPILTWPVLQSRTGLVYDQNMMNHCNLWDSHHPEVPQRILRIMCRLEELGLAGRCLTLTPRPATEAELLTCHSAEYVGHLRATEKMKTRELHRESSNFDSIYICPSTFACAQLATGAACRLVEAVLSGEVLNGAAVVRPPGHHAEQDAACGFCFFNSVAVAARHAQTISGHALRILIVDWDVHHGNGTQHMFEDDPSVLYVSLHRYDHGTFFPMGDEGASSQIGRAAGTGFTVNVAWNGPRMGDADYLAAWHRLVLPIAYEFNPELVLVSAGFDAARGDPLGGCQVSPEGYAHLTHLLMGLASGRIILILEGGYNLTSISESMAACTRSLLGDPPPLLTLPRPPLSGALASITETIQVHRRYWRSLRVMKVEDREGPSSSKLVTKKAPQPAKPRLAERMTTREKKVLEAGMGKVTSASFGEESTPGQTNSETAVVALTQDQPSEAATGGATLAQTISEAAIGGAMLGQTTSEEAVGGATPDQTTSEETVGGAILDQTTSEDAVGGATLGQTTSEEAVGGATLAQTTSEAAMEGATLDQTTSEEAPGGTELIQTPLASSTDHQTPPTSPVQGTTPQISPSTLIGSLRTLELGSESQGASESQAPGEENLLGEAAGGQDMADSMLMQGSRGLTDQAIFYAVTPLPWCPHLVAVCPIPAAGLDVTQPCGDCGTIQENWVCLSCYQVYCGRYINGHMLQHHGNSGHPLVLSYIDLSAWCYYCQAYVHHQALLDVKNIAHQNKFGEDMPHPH

HepG2 [6] = test: Cytotoxicity against human HepG2 cells assessed as reduction in cell viability at 10 uM incubated for 24 hrs by MTT assay relative to control; type: toxicity, cell-based; conditions: hepg2, 24 h

Row | Compound | Activity (HepG2 [1]) | Activity (IMR-32) | CC50 at 96 h [2] | EC50 (Trypanosoma brucei) | EC50 (Leishmania mexicana) | EC50 (Trypanosoma cruzi) | inhibition [3] | EC50 (Leishmania amazonensis) | inhibition [4] | IC50 [5] | Activity (HepG2 [6])
1 | COc1cccc(CCCCCCCCCCCC(=O)Nc2ccccc2N)c1 | Non-Toxic | Non-Toxic | > 200 µM | 14.4 µM | > 100 µM | > 10 µM | inactive | – | – | – | –
2 | N=C(N)c1ccc(OCCCCCOc2ccc(C(=N)N)cc2)cc1 [PENTAMIDINE] | – | – | – | 0.021 µM | 1.3 µM | – | – | – | – | – | –
3 | Nc1ccccc1NC(=O)CCCCCCCCCCCc1cccc(O)c1 | Non-Toxic | Non-Toxic | 145 µM | 7.2 µM | 58 µM | > 10 µM | inactive | > 30 µM | – | – | –
4 | O=C(CCCCCCCCCCCc1cccc(OC(=O)c2ccccc2)c1)NO | Non-Toxic | Non-Toxic | 79 µM | 4.8 µM | 54 µM | > 10 µM | inactive | > 30 µM | – | – | –
5 | CCCCCCCCCCCCCCCCOP(=O)([O-])OCC[N+](C)(C)C [MILTEFOSINE] | – | – | – | – | – | – | – | 1.38 µM | – | – | –
6 | Nc1ccccc1NC(=O)CCCCCCCCCCCc1cccc(OCc2ccccc2)c1 | Non-Toxic | Non-Toxic | > 200 µM | 78.3 µM | > 100 µM | > 10 µM | inactive | > 30 µM | – | – | –
7 | O=C(CCCCCCCCCCCc1cccc(OCc2ccccc2)c1)NO | Non-Toxic | Non-Toxic | 90 µM | 4.8 µM | 69 µM | > 10 µM | – | 14.5 µM | Dose-Dependent Effect | – | –
8 | O=C(Cn1ccnc1[N+](=O)[O-])NCc1ccccc1 [BENZNIDAZOLE] | – | – | > 200 µM | – | – | 2.63 µM | – | – | – | – | –
9 | C[C@@H]1[C@H](O)[C@@H](C)/C=C/C=C/C=C/C=C/C=C/C=C/C=C/[C@H](O[C@@H]2O[C@H](C)[C@@H](O)[C@H](N)[C@@H]2O)C[C@@H]2O[C@](O)(C[C@@H](O)C[C@@H](O)[C@H](O)CC[C@@H](O)C[C@@H](O)CC(=O)O[C@H]1C)C[C@H](O)[C@H]2C(=O)O [AMPHOTERICIN B] | – | – | – | – | 0.15 µM | – | – | – | – | – | –
10 | O=C(CCCCCCCCCCCc1cccc(O)c1)NO | Non-Toxic | Non-Toxic | 151 µM | 5.1 µM | ~100 µM | > 10 µM | – | > 30 µM | Dose-Dependent Effect | 1.01 µM | –
11 | COc1cccc(CCCCCCCCCCCC(=O)NO)c1 | – | Non-Toxic | 157 µM | 0.7 µM | 104 µM | > 10 µM | inactive | > 30 µM | – | – | 25%
12 | Nc1ccccc1NC(=O)CCCCCCCCCCCc1cccc(OC(=O)c2ccccc2)c1 | Non-Toxic | Non-Toxic | > 200 µM | 8.5 µM | > 100 µM | > 10 µM | inactive | > 30 µM | – | – | –
